According to US10597388B2, “Pyridazinone herbicides” (FMC CORPORATION, priority 2014, dated 2020):

Tests used:
Experiment in all cases: Test D controlled growth environment herbicide test, pre- and postemergence
Format in all cases: in vivo
[1] = tested on: oat, wild (wild oat, Avena fatua)
Procedure, shortened: (§1)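 Rating is visual, 0–100 scale (100 = complete control), made against untreated plants 14–21 d after treatment in controlled growth conditions. Postemergence sprays went onto 1- to 4-leaf plants in peat medium; preemergence sprays onto silt loam after sowing; formulation included a surfactant.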

[2] = tested on: radish, wild (wild radish, Raphanus raphanistrum)
Procedure, shortened: as §1

[3] = tested on: mustard, wild (wild mustard, Sinapis arvensis)
Procedure, shortened: as §1

[4] = tested on: Russian thistle (Salsola kali)
Procedure, shortened: as §1

[5] = tested on: speedwell (bird's-eye speedwell, Veronica persica)
Procedure, shortened: as §1

[6] = tested on: blackgrass (Alopecurus myosuroides)
Procedure, shortened: as §1

[7] = tested on: wheat, spring (spring wheat, Triticum aestivum)
Procedure, shortened: as §1

kochia (Kochia scoparia) = tested on: kochia (Kochia scoparia)
Procedure, shortened: as §1

[8] = tested on: barley, winter (winter barley, Hordeum vulgare)
Procedure, shortened: as §1

[9] = tested on: barley, spring (spring barley, Hordeum vulgare)
Procedure, shortened: as §1

[10] = tested on: pigweed (Amaranthus retroflexus)
Procedure, shortened: as §1

[11] = tested on: field poppy (Papaver rhoeas)
Procedure, shortened: as §1

[12] = tested on: bluegrass (annual bluegrass, Poa annua)
Procedure, shortened: as §1

[13] = Postemergence, 31 g ai/ha, scale 0 to 100 (0 no effect, 100 complete control)
[14] = Postemergence, 125 g ai/ha, visual rating on scale 0 (no effect) to 100 (complete control), 14 to 21 d
[15] = Postemergence, 250 g ai/ha, scale 0 to 100 (0 no effect, 100 complete control)
[16] = Preemergence, 62 g ai/ha, scale 0 to 100 (0 no effect, 100 complete control)
[17] = Preemergence, 125 g ai/ha, scale 0 to 100 (0 no effect, 100 complete control)
[18] = Preemergence, 250 g ai/ha, scale 0 to 100, 0 no effect, 100 complete control
[19] = postemergence, 62 g ai/ha, scale 0 to 100, 0 no effect, 100 complete control

Cc1nn(C)c(=O)c(-c2ccc(F)c3ccccc23)c1O [Compound 41]
10: Plant response rating, Barley, Spring [9, 14]
75: Plant response rating, Russian Thistle [4, 14] | Plant response rating, Russian Thistle [4, 15] | Plant response rating, Blackgrass [6, 15] | Plant response rating, Blackgrass [6, 16] | Plant response rating, Kochia (kochia (Kochia scoparia); [16]) | Pigweed plant response rating [10, 13] | Plant response rating, Pigweed [10, 16] | Plant response rating, Field Poppy [11, 14] | Plant response rating, Bluegrass [12, 16]
90: Plant response rating, Oat, Wild [1, 16] | Plant response rating, Oat, Wild [1, 17] | Radish, Wild plant response rating [2, 13] | Plant response rating, Radish, Wild [2, 14] | Mustard, Wild plant response rating [3, 13] | Plant response rating, Mustard, Wild [3, 16] | Bluegrass plant response rating [12, 18]
100: Plant response rating, Radish, Wild [2, 18] | Plant response rating, Mustard, Wild [3, 14] | Plant response rating, Mustard, Wild [3, 15] | Plant response rating, Mustard, Wild [3, 19] | Speedwell plant response rating [5, 13] | Plant response rating, Speedwell [5, 14] | Plant response rating, Speedwell [5, 15] | Plant response rating (scale of 0 to 100), Speedwell ([5]; Preemergence, 31 g ai/ha) | Plant response rating, Speedwell [5, 17] | Plant response rating, Speedwell [5, 18] | Plant response rating, Speedwell [5, 19] | Plant response rating, Kochia (kochia (Kochia scoparia); [15]) | Plant response rating, Kochia (kochia (Kochia scoparia); [18]) | Plant response rating, Pigweed [10, 17] | Plant response rating, Pigweed [10, 18]
5: Plant response rating, Barley, Winter [8, 14] | Plant response rating, Barley, Winter [8, 19] | Plant response rating, Barley, Spring [9, 19]
25: Plant response rating (scale of 0 to 100), Radish, Wild ([2]; Preemergence, 31 g ai/ha) | Plant response rating (scale of 0 to 100), Russian Thistle ([4]; Preemergence, 31 g ai/ha) | Plant response rating, Barley, Winter [8, 17] | Plant response rating (scale of 0 to 100), Pigweed ([10]; Preemergence, 31 g ai/ha) | Plant response rating, Bluegrass [12, 14]
20: Plant response rating, Russian Thistle [4, 16] | Plant response rating, Wheat, Spring [7, 19] | Plant response rating, Barley, Winter [8, 16] | Plant response rating, Barley, Spring [9, 15]
80: Plant response rating, Oat, Wild [1, 19] | Plant response rating, Radish, Wild [2, 19] | Plant response rating, Blackgrass [6, 17] | Blackgrass plant response rating [6, 18] | Plant response rating (scale of 0 to 100), Kochia (kochia (Kochia scoparia); Preemergence, 31 g ai/ha) | Plant response rating, Kochia (kochia (Kochia scoparia); [17]) | Plant response rating, Pigweed [10, 14] | Plant response rating, Pigweed [10, 19] | Plant response rating, Field Poppy [11, 19] | Plant response rating, Bluegrass [12, 17]
55: Blackgrass plant response rating [6, 13] | Plant response rating, Wheat, Spring [7, 16] | Field Poppy plant response rating [11, 13]
60: Barley, Spring plant response rating [9, 18]
65: Plant response rating, Blackgrass [6, 19]
0: Plant response rating, Barley, Winter [8, 13] | Plant response rating (scale of 0 to 100), Barley, Winter ([8]; Preemergence, 31 g ai/ha) | Plant response rating, Barley, Spring [9, 13] | Plant response rating (scale of 0 to 100), Barley, Spring ([9]; Preemergence, 31 g ai/ha) | Plant response rating, Barley, Spring [9, 16]
70: Oat, Wild plant response rating [1, 13] | Plant response rating (scale of 0 to 100), Mustard, Wild ([3]; Preemergence, 31 g ai/ha) | Russian Thistle plant response rating [4, 13] | Plant response rating, Russian Thistle [4, 18] | Plant response rating, Russian Thistle [4, 19] | Plant response rating, Blackgrass [6, 14] | Plant response rating (scale of 0 to 100), Blackgrass ([6]; Preemergence, 31 g ai/ha) | Plant response rating, Wheat, Spring [7, 17] | Plant response rating (scale of 0 to 100), Bluegrass ([12]; Preemergence, 31 g ai/ha)
30: Plant response rating, Wheat, Spring [7, 14] | Barley, Winter plant response rating [8, 18] | Plant response rating, Barley, Spring [9, 17] | Plant response rating, Bluegrass [12, 19]
40: Plant response rating, Russian Thistle [4, 17] | Plant response rating, Wheat, Spring [7, 15] | Plant response rating (scale of 0 to 100), Wheat, Spring ([7]; Preemergence, 31 g ai/ha)
95: Plant response rating, Oat, Wild [1, 18] | Plant response rating, Radish, Wild [2, 15] | Plant response rating, Radish, Wild [2, 17] | Plant response rating, Mustard, Wild [3, 17] | Plant response rating, Mustard, Wild [3, 18] | Plant response rating, Speedwell [5, 16] | Plant response rating, Kochia (kochia (Kochia scoparia); [19]) | Plant response rating, Field Poppy [11, 15] | Plant response rating (scale of 0 to 100), Field Poppy ([11]; Preemergence, 31 g ai/ha) | Plant response rating, Field Poppy [11, 16] | Plant response rating, Field Poppy [11, 18]
15: Wheat, Spring plant response rating [7, 13] | Bluegrass plant response rating [12, 13]
35: Plant response rating, Barley, Winter [8, 15] | Plant response rating, Bluegrass [12, 15]
85: Plant response rating, Oat, Wild [1, 14] | Plant response rating, Oat, Wild [1, 15] | Plant response rating (scale of 0 to 100), Oat, Wild ([1]; Preemergence, 31 g ai/ha) | Plant response rating, Radish, Wild [2, 16] | Plant response rating, Wheat, Spring [7, 18] | Kochia plant response rating (kochia (Kochia scoparia); [13]) | Plant response rating, Kochia (kochia (Kochia scoparia); [14]) | Plant response rating, Pigweed [10, 15]
